From paper PMC7821884, “BRAF inhibition protects against hearing loss in mice” (Science Advances, 2020)

Columns and labels:
[1] = cited from earlier work
[2] = tested on: human neuroblastoma and lung carcinoma cell lines; experiment: Tumor Cell Titer-Glo viability assay, interference with cisplatin tumor killing (six cell lines); format: cell-based; conditions: compound at 3× protective IC50 (dabrafenib 35 μM, AZD5438 […]) + 15 μM cisplatin (200 μM for A549), 48 hours
Text: (§1) In clinical settings, cisplatin is used to treat several tumor types, including neuroblastoma and lung carcinoma. […] Medium-alone–, cisplatin-alone–, and dabrafenib-alone–treated cells were used as controls, and viability was reported as percent survival compared to medium alone (Fig. 4E).
(§2) Three human neuroblastoma cell lines IMR-32, SH-SY5Y, and, SK-N-AS, as well as three human lung carcinoma cell lines SHP-77 small cell, H1155 non–small cell, and A549 non–small cell, were used to determine the compounds’ effect on cisplatin’s tumor-killing efficacy ([77]–[83]). Cell lines were purchased from the American Type Culture Collection (ATCC), and cell culture was conducted according to ATCC specifications. Neuroblastoma cell lines IMR-32 and SH-SY5Y are maintained in Dulbecco’s modified Eagle’s medium (DMEM) 1× with glucose (4.5 g/liter), L-glutamine, and sodium pyruvate (10-013-CV, Corning) with 10% fetal bovine serum (FBS) (35011132, Corning) and ampicillin (50 μg/ml; A5354-10ML, Sigma-Aldrich) added. The SK-N-AS cell line is maintained in DMEM 1× with D-glucose (4.5 g/liter), L-glutamine, and 25 mM Hepes (12430-054, Gibco) with 10% FBS, 0.1 mM nonessential amino acids, and ampicillin (50 μg/ml) added. A549 cells are maintained in F-12K medium with L-glutamine (30-2004, ATCC) with 10% FBS and ampicillin (50 μg/ml) added. […]

[3] = tested on: SHP-77 small cell; experiment: Tumor Cell Titer-Glo viability assay, SHP-77; format: cell-based, human
Text: as §1, §2

[4] = tested on: P42 FVB mice; experiment: Cisplatin-induced hearing loss in adult mice (ABR, OHC counts, pERK)
Experimental: As described in Fig. 4A, baseline auditory brainstem response (ABR) thresholds for P42 FVB mice were established 1 week before experimental procedures. […] Animals were allowed 21 days after cisplatin injection to recover, and final ABR thresholds were recorded.
Ten milligrams of cisplatin (479306, Sigma-Aldrich) powder was dissolved in 10 ml of sterile saline (0.9% NaCl) at 37°C for 40 to 60 min. Cisplatin was administered to FVB mice at 30 mg/kg via intraperitoneal injection. One day before cisplatin injection, mice received 1 ml of saline by subcutaneous injection. To ameliorate dehydration after cisplatin injection, 1 ml of warm saline was injected twice per day for at least 7 days or until body weight started to recover. The cages of cisplatin-treated mice were placed on the heating pad for at least 7 days or until body weight began to recover. Fresh mush food was daily given for at least 7 days.
Compounds were dissolved in a mixture of 10% DMSO, 5% Tween 80 (P1754, Sigma-Aldrich), 40% PEG-E-300 (91462-1KG, Sigma-Aldrich), and 45% 0.9% saline.
ABR in mice was measured for left ears as described previously with minor modifications ([13], [34]). In brief, ABR waveforms were recorded in a sound booth (Industrial Acoustic Company) by using subdermal needles positioned in the skull, below the pinna, and at the base of the tail, and the responses were fed into a low-impedance Medusa digital biological amplifier system (RA4L; TDT; 20-dB gain). At each frequency, the stimulus intensity was reduced from 90 to 0 dB in 10-dB steps to determine the threshold decibel SPL when the electrical response was just above the noise floor. ABR waveforms were averaged in response to 500 tone bursts. The recorded signals were filtered by a band-pass filter from 300 Hz to 3 kHz. Pretreatment ABR recordings of adult FVB mice (aged 6 weeks) were acquired 1 week before all treatments, and posttreatment ABR measurements were recorded 21 days after cisplatin treatment or 14 days after noise exposure. ABR threshold was determined by the presence of any of three or more of the five waveform peaks. […] All thresholds and shifts were determined independently by two experimenters for each mouse. Individual ABR wave 1 amplitudes were measured as the difference between the positive peak and the following negative trough.
Cochleae from adult mice were prepared and examined as described previously ([85], [86]). All images were acquired with a confocal microscope (LSM 700 or 710, Zeiss). Samples were stained with phalloidin (A12379 or A12380, Invitrogen) or with antibodies for other markers. The following primary antibodies were used: anti–myosin VI (1:400; 25-6791; Proteus Bioscience), anti–myosin VIIa ([…];138-1-s, Developmental Studies Hybridoma Bank), anti-Tuj1 (1:250; 801201, BioLegend), anti-pERK (1:400; 9101S, Cell Signaling Technology), or anti-Ctbp2 (1:500; 612044, BD Transduction). Anti-rabbit Alexa Fluor 488 (1:400; A11034) and anti-mouse Alexa Fluor 647 (1:400; A31571) secondary antibodies were purchased from Invitrogen. ProLong gold antifade reagent with 4′,6-diamidino-2-phenylindole (P36941, Invitrogen) was used to counterstain nuclei.

[5] = tested on: IMR-32; experiment: Tumor Cell Titer-Glo viability assay, IMR-32; format: cell-based, human; conditions: IMR-32, 35 μM + 15 μM cisplatin, 48 hours
Text: as §1, §2

Structure (SMILES): CC(C)(C)c1nc(-c2cccc(NS(=O)(=O)c3c(F)cccc3F)c2F)c(-c2ccnc(N)n2)s1 [dabrafenib]
- half-life in circulation [1]: roughly 8 hours
- effect on cisplatin-induced tumor cell death [2]: no inhibitory effect
- effect on tumor cell death when combined with cisplatin ([3]; SHP-77, 35 μM + 15 μM cisplatin, 48 hours): increased tumor cell death
- cell survival, drug treatment alone ([3]; SHP-77, 35 μM, no cisplatin): significant inhibition
- ERK phosphorylation in cochlear SCs after cisplatin ([4]; 100 mg/kg 45 min pretreatment, 1 hour after cisplatin 30 mg/kg i.p.): attenuated
- protection of ABR threshold at 16 kHz ([4]; 100 mg/kg oral, cisplatin 30 mg/kg i.p.): nearly full protection
- loss of OHCs in cochlea, combined with cisplatin ([4]; 100 mg/kg oral, cisplatin 30 mg/kg, 8-, 16-, 32-kHz regions): limited
- OHC loss, drug alone ([4]; 100 mg/kg oral, no cisplatin): No OHC loss
- whole-body toxicity or ototoxic effects ([4]; 3-day dabrafenib-alone treatment, weight, appearance/behavior, ototoxicity up to 21 days): did not observe whole-body toxicity or ototoxic effects
- survival rate of mice ([4]; cisplatin 30 mg/kg i.p., alone or combined with dabrafenib): 50%
- crossing of the blood-labyrinth barrier ([4]; inferred from effects in mice via oral delivery): crosses the blood-labyrinth barrier
- ABR wave 1 amplitude at 16 kHz versus cisplatin alone ([4]; significant at 90-dB SPL): higher
- effect on tumor cell death when combined with cisplatin [5]: increased tumor cell death
